Columns and labels:
[1] = molecular target: BTK Kinase (Homo sapiens (Human), UniProt Q06187); assay: In-vitro Btk kinase inhibitory activity assay; type: biochemical
Protocol: In-Vitro Btk Kinase Inhibitory Activity Assay for Compounds of the Present Invention:
10 μL of the 50× drug stock solution was added to a 96-well plate and then 90 μL of a 1× Kinase Buffer was added and the 96-well plate was shaken for 10 minutes on a shaker. From each well of the 96-well plate, 5 μL of the drug solution was taken and then transferred to a 384-well plate which was provided with 2 duplicate wells.
Preparation of a 2.5× Kinase Buffer: an enzyme was added to the 1× kinase base buffer.
Prepare a 2.5× oligopeptide solution: FAM-labeled oligopeptide and ATP were added to the 1× kinase base buffer.
10 μL of the 2.5× Kinase Buffer was added to the 384-well plate loaded with 5 μL of the drug solution and incubation was then carried out for 10 minutes at room temperature. 10 μL of the 2.5× oligopeptide solution was added to the 384-well plate and incubation was then carried out for 1 hour at 28° C. The reaction was stopped by adding 25 μL of a stop buffer. The readings were recorded and the inhibition rate of the compound on the enzyme was calculated. The IC50 of BTK kinase was calculated by fitting.

[2] = Oral pharmacokinetic experiment in SD rats; type: in vivo
Protocol: SD rats were used as experimental animals and were subjected to intragastric administration in a dose of 10 mg/kg and tail-vein intravenous injection in a dose of 2 mg/kg. The tail-vein blood sampling time points in the intragastric administration were 0.17, 0.33, 0.5, 1, 1.5, 2, 4, 6, 8, 12, and 24 hours; the blood sampling time points in the intravenous administration were 0.05, 0.1, 0.17, 0.5, 1, 2, 4, 6, 8, 12, and 24 hours. 0.3 ml of whole blood was taken, and 0.1 ml of plasma after centrifugation was taken and analyzed by LC-MS.

[3] = molecular target: hERG potassium channel (Homo sapiens (Human), UniProt Q12809); assay: hERG potassium channel inhibitory activity, manual patch clamp in CHO cells; type: cell-based; details: CHO cells stably expressing hERG, whole-cell patch clamp
hERG potassium channel, sequence (Q12809 whole entry): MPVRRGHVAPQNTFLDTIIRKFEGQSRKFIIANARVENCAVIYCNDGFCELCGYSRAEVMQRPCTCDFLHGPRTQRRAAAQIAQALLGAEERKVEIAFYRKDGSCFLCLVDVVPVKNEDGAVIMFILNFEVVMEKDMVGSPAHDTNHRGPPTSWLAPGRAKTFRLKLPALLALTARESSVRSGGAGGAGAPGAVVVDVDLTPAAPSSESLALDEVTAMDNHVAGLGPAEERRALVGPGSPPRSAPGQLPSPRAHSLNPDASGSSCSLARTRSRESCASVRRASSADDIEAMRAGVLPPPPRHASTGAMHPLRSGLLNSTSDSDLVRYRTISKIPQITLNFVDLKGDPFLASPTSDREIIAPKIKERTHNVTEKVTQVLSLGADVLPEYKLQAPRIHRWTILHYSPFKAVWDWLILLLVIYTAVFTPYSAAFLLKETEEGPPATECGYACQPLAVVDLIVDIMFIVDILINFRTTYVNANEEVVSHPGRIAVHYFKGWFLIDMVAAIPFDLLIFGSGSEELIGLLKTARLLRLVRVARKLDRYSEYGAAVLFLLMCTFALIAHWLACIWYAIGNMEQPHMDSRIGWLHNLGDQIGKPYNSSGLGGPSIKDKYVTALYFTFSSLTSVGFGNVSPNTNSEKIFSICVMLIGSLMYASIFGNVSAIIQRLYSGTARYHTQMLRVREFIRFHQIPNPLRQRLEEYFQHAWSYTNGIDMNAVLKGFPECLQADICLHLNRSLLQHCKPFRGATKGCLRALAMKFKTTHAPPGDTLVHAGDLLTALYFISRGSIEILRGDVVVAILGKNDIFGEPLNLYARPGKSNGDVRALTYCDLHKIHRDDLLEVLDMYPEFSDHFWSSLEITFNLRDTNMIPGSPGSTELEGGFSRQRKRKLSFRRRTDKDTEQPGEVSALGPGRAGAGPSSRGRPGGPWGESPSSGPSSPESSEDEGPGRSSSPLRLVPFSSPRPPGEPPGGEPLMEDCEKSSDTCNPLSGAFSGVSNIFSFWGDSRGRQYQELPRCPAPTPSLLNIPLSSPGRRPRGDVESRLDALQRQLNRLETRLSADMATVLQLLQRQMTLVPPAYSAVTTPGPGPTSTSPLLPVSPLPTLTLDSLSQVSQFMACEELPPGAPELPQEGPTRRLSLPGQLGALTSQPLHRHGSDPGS
Protocol: The cells used in this experiment were CHO cell lines transfected with HergCdna and stably expressing Herg channels (supplied by Sophion Bioscience, Denmark). The cells were cultured in a medium containing the following components (all from Invitrogen): Ham's F12 medium, 10% (v/v) inactivated fetal bovine serum, 100 μg/ml hygromycin B, 100 μg/ml Geneticin. […] 24 to 48 hours before an electrophysiological experiment, CHO Herg cells were transferred to circular slides placed in the culture dishes and grow with the same culture liquid under the same culture conditions as above. The density of CHO Herg cells on each circular slide was required to reach such a value that most cells were independent and stand alone.
2. Treatment and Dilution of a Compound
Before the test, the compound was first diluted with DMSO at gradient to make stock solutions with concentrations of 10, 3, 1, 0.3 and 0.1 Mm and the stock solutions were then diluted with extracellular fluid to a final Mm test concentration. Except that the DMSO concentration in the 30 Mm compound test solution was 0.3%, the final concentration of DMSO in each of the compound solutions with other concentrations was 0.1%. The test concentration of a positive control Cisapridewas 0.1 Mm. All compound solutions were conventionally sonicated and shaken for 5 to 10 minutes to ensure complete dissolution of the compound.
3. Electrophysiological Recording System and Data Analysis
This experiment uses a manual patch clamp system (HEKA EPC-10 signal amplifier and digital conversion system, purchased from HEKA Electronics, Germany) for the recording of whole cell currents. The circular slides with CHO Herg cells growing on the surfaces were placed in an electrophysiological recording slot under an inverted microscope. The extracellular fluid was used for continuous perfusion in the recording slot (approximately lml per minute). The experimental procedure uses a conventional whole-cell patch clamp current recording technique. Unless otherwise stated, the experiment was carried out at regular room temperature ([…]). The cells were clamped at a voltage of −80 Mv. The cell clamp voltage was depolarized to +20 Mv to activate the Herg potassium channel, and 5 seconds later, it was clamped to −50 Mv to eliminate inactivation and generate tail current. The peak of the tail current was used as the value of the Herg current. After the hERG potassium current recorded in the above step was stabilized under the continuous extracellular fluid perfusion in the recording slot, the drug to be tested can be superimposed to the perfusion until the inhibitory effect of the drug on the hERG current reaches a steady state. Generally, the criterion for determine whether or not the stable state was reached was that the recent three consecutive current recording lines were coincident. After the steady state was reached, extracellular fluid perfusion was carried out for flushing until the hERG current returns to the magnitude before the drug was added. One cell may be used for testing one or more drugs, or multiple concentrations of the same drug, and flushing with extracellular fluid was carried out between tests of different drugs. Cisapride (purchased from Sigma) was used in the experiment as a positive control to ensure that the cells used were of normal quality. The test data was analyzed by data analysis software provided by HEKA Patchmaster, Microsoft Excel and Graphpad Prism.

[4] = test system: human lung cancer cell (A549); assay: In-vitro tumor cell proliferation inhibition (CCK-8), A549; details: A549, 72 h, read-out: Tumor cell proliferation inhibitory activity (IC50, μM) A549
[5] = test system: human mantle cell lymphoma (MINO); assay: In-vitro tumor cell proliferation inhibition (CCK-8), MINO; details: 72 h, read-out: Tumor cell proliferation inhibitory activity (IC50, μM) MINO
Protocol: (§1) The in-vitro antitumor activity assay was carried out on the synthesized compound by using different solid tumors and leukemia cell lines:
(§2) Cell lines: human lung cancer cell (A549), human mantle cell lymphoma (MINO), diffuse giant B-cell lymphoma (OCI-LY10), and human diffuse large B lymphoma (TMD-8).
(§3) Preparation method of the drug: the drug was dissolved in DMSO to make a 10 mM stock solution, and then the stock solution was diluted in a certain ratio to obtain 5 different concentrations (test concentration 100×). In-vitro culture of tumor cells:
(§4) The tumor cells A549, MINO, OCI-LY10, and TMD-8 were seeded in a 96-well plate at 4000 cells/200 μL/well and then incubated overnight at 37° C. in a 5% CO2 cell culture incubator. 2 μL of the compound was added to each well to final concentrations of 50 μM, 10 μM, 2 μM, 0.4 μM, and 0.08 μM and then incubated for 72 hours at 37° C. in a 5% CO2 cell incubator, with DMSO (2%) as a control group. […] Wells loaded with the corresponding amount of cell culture fluid the and CCK-8 solution but no cells were considered as blank controls. The absorbance (OD value) was measured at 450 nm using a microplate reader, and the obtained data was used to calculate IC50.

[6] = test system: human diffuse large B lymphoma (TMD-8); assay: In-vitro tumor cell proliferation inhibition (CCK-8), TMD-8; details: TMD8, 72 h, read-out: Tumor cell proliferation inhibitory activity (IC50, nM) TMD-8
Protocol: as §1, §2, §3, §4

[7] = test system: diffuse giant B-cell lymphoma (OCI-LY10); assay: In-vitro tumor cell proliferation inhibition (CCK-8), OCI-LY10; details: Homo sapiens, OCI-Ly10, 72 h, read-out: Tumor cell proliferation inhibitory activity (IC50, nM) OCI-LY10
Protocol: as §1, §2, §3, §4

[8] = oral (intragastric) 10 mg/kg, mean n = 3

BTK Kinase, sequence (Q06187 whole entry): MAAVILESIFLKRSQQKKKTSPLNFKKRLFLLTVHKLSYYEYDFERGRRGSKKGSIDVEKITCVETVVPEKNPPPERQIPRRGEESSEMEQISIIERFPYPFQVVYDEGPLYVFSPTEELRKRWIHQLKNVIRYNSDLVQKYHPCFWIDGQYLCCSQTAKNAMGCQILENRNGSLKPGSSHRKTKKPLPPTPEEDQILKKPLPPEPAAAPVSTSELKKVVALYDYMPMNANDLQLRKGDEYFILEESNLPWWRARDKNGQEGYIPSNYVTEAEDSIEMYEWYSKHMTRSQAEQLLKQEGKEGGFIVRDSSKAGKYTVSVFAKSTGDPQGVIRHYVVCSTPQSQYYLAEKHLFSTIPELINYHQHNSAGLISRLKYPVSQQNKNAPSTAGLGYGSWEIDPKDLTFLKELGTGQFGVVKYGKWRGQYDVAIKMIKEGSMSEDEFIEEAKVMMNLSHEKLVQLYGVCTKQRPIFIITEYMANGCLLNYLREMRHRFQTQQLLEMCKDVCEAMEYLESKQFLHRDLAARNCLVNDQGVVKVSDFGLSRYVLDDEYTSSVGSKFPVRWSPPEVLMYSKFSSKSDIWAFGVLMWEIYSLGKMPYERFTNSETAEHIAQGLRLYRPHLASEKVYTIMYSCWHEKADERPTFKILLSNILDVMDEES

C=CC(=O)N1CCC[C@@H](n2nc(-c3cnc(Oc4ccccc4)cc3C)c3c(N)ncnc32)C1 [Compound 16c, (R)-1-(3-(4-amino-3-(4-methyl-6-phenoxypyridin-3-yl)-1H-pyrazolo[3,4-d]pyrimidin-1-yl)piperidin-1-yl)prop-2-en-1-one]
IC50 [1]: 6.6 nM

C=CC(=O)N1CC[C@@H](n2nc(-c3ccc(Oc4cccc(F)c4F)nc3)c3c(N)ncnc32)C1 [Compound 23d, (R)-1-(3-(4-amino-3-(6-(2,3-difluorophenoxy)pyridin-3-yl)-1H-pyrazolo[3,4-d]pyrimidin-1-yl)pyrrolidin-1-yl)prop-2-en-1-one]
IC50 [1]: 7.4 nM

C=CC(=O)N1CC[C@H](n2nc(-c3ccc(Oc4ccccc4)nc3F)c3c(N)ncnc32)C1 [Compound 24b, (S)-1-(3-(4-amino-3-(2-fluoro-6-phenoxypyridin-3-yl)-1H-pyrazolo[3,4-d]pyrimidin-1-yl)pyrrolidin-1-yl)prop-2-en-1-one]
oral bioavailability relative to ibrutinib ([2]; oral 10 mg/kg): 3.69 times

Nc1ncnc2c1c(-c1ccc(Oc3ccccc3)nc1)nn2[C@@H]1CCCN(C(=O)C#CCCO)C1 [Compound 21c, (R)-1-(3-(4-amino-3-(6-phenoxypyridin-3-yl)-1H-pyrazolo[3,4-d]pyrimidin-1-yl)piperidin-1-yl)-5-hydroxypent-2-yn-1-one]
IC50 [3]: 25200 nM

C=CC(=O)N1CCC[C@@H](n2nc(-c3ccc(Oc4ccc(F)c(F)c4)nc3)c3c(N)ncnc32)C1 [Compound 15f, (R)-1-(3-(4-amino-3-(6-(3,4-difluorophenoxypyridine)-3-yl)-1H-pyrazolo[3,4-d]pyrimidin-1-yl)piperidin-1-yl)prop-2-en-1-one]
IC50 [1]: 25.3 nM

C=CC(=O)N1CC[C@@H](n2nc(-c3ccc(Oc4c(F)cccc4F)nc3)c3c(N)ncnc32)C1 [Compound 23c, (R)-1-(3-(4-amino-3-(6-(2,6-difluorophenoxy)pyridin-3-yl)-1H-pyrazolo[3,4-d]pyrimidin-1-yl)pyrrolidin-1-yl)prop-2-en-1-one]
IC50 [1]: 9.7 nM

C=CC(=O)N1CCC[C@@H](n2nc(-c3cnc(Oc4ccccc4)cc3F)c3c(N)ncnc32)C1 [Compound 16a, (R)-1-(3-(4-amino-3-(4-fluoro-6-phenoxypyridin-3-yl)-1H-pyrazolo[3,4-d]pyrimidin-1-yl)piperidin-1-yl)prop-2-en-1-one]
IC50 [1]: 8.9 nM
IC50 [3]: 6900 nM

C=CC(=O)N1CC[C@@H](n2nc(-c3ccc(Oc4ccccc4F)nc3)c3c(N)ncnc32)C1 [Compound 23b, (R)-1-(3-(4-amino-3-(6-(2-fluorophenoxy)pyridin-3-yl)-1H-pyrazolo[3,4-d]pyrimidin-1-yl)pyrrolidin-1-yl)prop-2-en-1-one]
IC50 [1]: 9.6 nM

C=CC(=O)N1CCC[C@@H](n2nc(-c3cnc(Oc4ccccc4)c(F)c3)c3c(N)ncnc32)C1 [Compound 16b, (R)-1-(3-(4-amino-3-(5-fluoro-6-phenoxypyridin-3-yl)-1H-pyrazolo[3,4-d]pyrimidin-1-yl)piperidin-1-yl)prop-2-en-1-one]
IC50 [1]: 8.6 nM

C=CC(=O)N1CCC[C@@H](n2nc(-c3cnc(Oc4ccccc4)nc3)c3c(N)ncnc32)C1 [Compound 18, (R)-1-(3-(4-amino-3-(2-phenoxypyrimidin-5-yl)-1H-pyrazolo[3,4-d]pyrimidin-1-yl)piperidin-1-yl)prop-2-en-1-one]
IC50 [1]: 10.3 nM
IC50 [4]: 19.5 µM
IC50 [5]: 20.3 µM
IC50 [6]: 8.14 nM
IC50 [7]: 32.1 nM

C=CC(=O)N1CCC[C@@H](n2nc(-c3ccc(Oc4ccccc4F)nc3)c3c(N)ncnc32)C1 [Compound 15d, (R)-1-(3-(4-amino-3-(6-(2-fluorophenoxypyridine)-3-yl)-1H-pyrazolo[3,4-d]pyrimidin-1-yl)piperidin-1-yl)prop-2-en-1-one]
IC50 [1]: 7.5 nM
IC50 [4]: 5.12 µM
IC50 [5]: 9.15 µM
IC50 [6]: 3.83 nM
IC50 [7]: 5.12 nM

C=CC(=O)N1CCC[C@@H](n2nc(-c3ccc(Oc4ccc(OC)cc4)nc3)c3c(N)ncnc32)C1 [Compound 15j]
IC50 [1]: 32.5 nM
IC50 [3]: 17500 nM

C=CC(=O)N1CCC[C@@H](n2nc(-c3ccc(Oc4ccccc4)nc3C)c3c(N)ncnc32)C1 [Compound 16d, (R)-1-(3-(4-amino-3-(2-methyl-6-phenoxypyridin-3-yl)-1H-pyrazolo[3,4-d]pyrimidin-1-yl)piperidin-1-yl)prop-2-en-1-one]
IC50 [1]: 7.2 nM

C=CC(=O)N1CCC[C@@H](n2nc(-c3ccc(Oc4c(F)cccc4F)nc3)c3c(N)ncnc32)C1 [Compound 15g, (R)-1-(3-(4-amino-3-(6-(2,6-difluorophenoxypyridine)-3-yl)-1H-pyrazolo[3,4-d]pyrimidin-1-yl)piperidin-1-yl)prop-2-en-1-one]
IC50 [1]: 7.8 nM

C=CC(=O)N1CCC[C@@H](n2nc(-c3ccc(Oc4ccc(Cl)cc4)nc3)c3c(N)ncnc32)C1 [Compound 15e, (R)-1-(3-(4-amino-3-(6-(4-chlorophenoxypyridine)-3-yl)-1H-pyrazolo[3,4-d]pyrimidin-1-yl)piperidin-1-yl)prop-2-en-1-one]
IC50 [1]: 10.5 nM

C=CC(=O)N1CCC[C@@H](n2nc(-c3ccc(Oc4ccc(C(F)(F)F)cc4)nc3)c3c(N)ncnc32)C1 [Compound 15k, (R)-1-(3-(4-amino-3-(6-(4-trifluoromethylphenoxypyridine)-3-yl)-1H-pyrazolo[3,4-d]pyrimidin-1-yl)piperidin-1-yl)prop-2-en-1-one]
IC50 [1]: 18.2 nM

C=CC(=O)N1CCC[C@@H](n2nc(-c3ccc(Oc4cccc(F)c4F)nc3)c3c(N)ncnc32)C1 [Compound 15h, (R)-1-(3-(4-amino-3-(6-(2,3-difluorophenoxypyridine)-3-yl)-1H-pyrazolo[3,4-d]pyrimidin-1-yl)piperidin-1-yl)prop-2-en-1-one]
IC50 [1]: 3.2 nM

C=CC(=O)N1CCC[C@@H](n2nc(-c3ccc(Oc4ccccc4)cc3)c3c(N)ncnc32)C1 [Ibrutinib, reference compound]
AUC0-C(ng/h/mL) [2, 8]: 550 ng·h/mL
AUC0-t (ng/h/mL) [2, 8]: 544 ng·h/mL
bioavailability ([2]; rat, plasma, oral 10 mg/kg vs intravenous 2 mg/kg, mean n = 3): 12.5%
Cmax ([2]; rat, plasma, oral (intragastric) 10 mg/kg, mean n = 3): 254 ng/mL
